Data taken from ChEMBL document CHEMBL6115010, “Targeting glioma with heteroaromatic alkaloids: A review of potential therapeutics” (Bioorg Med Chem, 2025).
Values after ≈ are worked out from the molar mass of the structure shown.

Tests used:
U-251 [1] = assay: Cytotoxicity against human U-251MG cells assessed as reduction in cell growth; format: functional, cell-based
U-87 MG [2] = assay: Cytotoxicity against human U-87 MG cells by resazurin dye based assay; format: functional, cell-based, U-87MG ATCC
[3] = Cytotoxicity against human U87MG.deltaEGFR cells by resazurin dye based assay; format: functional, cell-based
SF-268 [4] = assay: Cytotoxicity against human SF-268 cells assessed as reduction in cell viability incubated for 72 hrs by MTT assay; format: functional, cell-based; details: SF-268, 72 h
[5] = Cytotoxicity against rat RT-2 cells assessed as reduction in cell growth by measuring lethal concentration incubated for 24 hrs by MTT assay; format: functional; details: RT2, read-out: LC50 (the source's name)
ECV-304 [6] = assay: Cytotoxicity against human ECV-304 cells assessed as reduction in cell growth by measuring lethal concentration incubated for 24 hrs by MTT assay; format: functional; details: read-out: LC50 (the source's name)
ECV-304 [7] = assay: Cytotoxicity against human ECV-304 cells assessed as reduction in cell growth by measuring lethal concentration incubated for 72 hrs by MTT assay; format: functional; details: read-out: LC50 (the source's name)
U-87 MG [8] = assay: Antiproliferative activity against human U-87 MG cells assessed as reduction in cell growth measured for 24 hrs by MTT assay; format: functional, cell-based, U-87MG ATCC
[9] = Cytotoxicity against rat RT-2 cells assessed as reduction in cell growth by measuring lethal concentration incubated for 72 hrs by MTT assay; format: functional; details: RT2, read-out: LC50 (the source's name)
[10] = Antiproliferative activity against human SWO-38cells assessed as reduction in cell growth measured for 24 hrs by MTT assay; format: functional, cell-based; details: SWO-38, 24 h
U-251 [11] = assay: Antiproliferative activity against human U-251MG cells assessed as reduction in cell growth measured for 24 hrs by MTT assay; format: functional, cell-based; details: U-251, 24 h
U-118-MG [12] = assay: Antiproliferative activity against human U-118-MG cells assessed as inhibition of cell proliferation incubated for 72 hrs by CCK8 assay; format: functional, cell-based
U-87 MG [13] = assay: Antitumor activity against human U-87 MG cells xenografted in BALB/c nude mouse assessed as reduction in tumor growth at 5 mg/kg, iv administered once daily for 16 days relative to control; format: functional, U-87MG ATCC; design: scale not given: the % may be the effect or the level left; details: time 16 day
U-87 MG [14] = assay: Antiproliferative activity against human U-87 MG cells assessed as reduction in cell viability incubated for 72 hrs by Presto-Blue cell viability assay; format: functional, cell-based, U-87MG ATCC
H4 = assay: Antiproliferative activity against human H4 cells assessed as reduction in cell viability incubated for 72 hrs by Presto-Blue cell viability assay; format: functional, cell-based; details: H4, 72 h
U-87 MG [15] = assay: Antitumor activity against human U-87 MG cells xenografted in mouse model assessed as reduction in tumor growth at 15 mg/kg, ip administered once daily for 5 days relative to control; format: functional, U-87MG ATCC; design: scale not given: the % may be the effect or the level left; details: time 5 day
U-251 [16] = assay: Induction of apoptosis in human U-251MG cells assessed as increase in PARP cleavage at 12.5 to 100 uM incubated for 24 hrs by Western blot analysis; format: functional; details: dose 12.5-100 µM
U-251 [17] = assay: Antiproliferative activity against human U-251MG cells assessed as reduction in cell viability incubated for 48 hrs by SRB assay; format: functional, cell-based; details: U-251, 48 h
T98G [18] = assay: Antiproliferative activity against human T98G cells assessed as reduction in cell viability incubated for 96 hrs by MTT assay; format: functional, cell-based
T98G [19] = assay: Induction of apoptosis in human T98G cells at 10 ug/ml relative to control; format: functional; details: dose 10 µg/ml
SF-268 [20] = assay: Antiproliferative activity against human SF-268 cells assessed as inhibition of cell growth by MTT assay; format: functional; details: read-out: ED50 (the source's name)
C6 [21] = assay: Cytotoxicity against rat C6 cells assessed as reduction in cell growth measured for 48 hrs by MTT assay; format: functional, cell-based; details: C6, 48 h
LN-18 = assay: Antiproliferative activity against human LN-18 cells assessed as reduction in cell viability incubated for 48 hrs by CCK-8 assay; format: functional, cell-based; details: LN-18, 48 h
U-87 MG [22] = assay: Antiproliferative activity against human U-87 MG cells assessed as reduction in cell viability incubated foe 24 hrs by MTT assay; format: functional, cell-based, U-87MG ATCC
U-251 [23] = assay: Antiproliferative activity against human U-251MG cells assessed as reduction in cell viability at 50 uM incubated for 48 hrs by CCK-8 assay relative to control; format: functional
U-87 MG [24] = assay: Antiproliferative activity against human U-87 MG cells assessed as reduction in cell viability incubated for 48 hrs by CCK-8 assay; format: functional, cell-based, U-87MG ATCC
C6 [25] = assay: Antiproliferative activity against rat C6 cells assessed as reduction in cell viability incubated foe 24 hrs by MTT assay; format: functional, cell-based; details: C6, 24 h
U-87 MG [26] = assay: Antiproliferative activity against human U-87 MG cells assessed as reduction in cell viability at 50 uM incubated for 48 hrs by CCK-8 assay relative to control; format: functional, U-87MG ATCC
U-251 [27] = assay: Growth inhibition of human U-251 cells measured after 48 hrs by sulforhodamine B assay; format: functional
RPMI 8402 = assay: Cytotoxicity against human RPMI 8402 cells assessed as reduction in cell viability incubated for 4 days by MTT assay; format: functional, cell-based; details: RPMI 8402, 96 h
HaCaT = assay: Growth inhibition of human HaCaT cells measured after 48 hrs by sulforhodamine B assay; format: functional
SF-268 [28] = assay: Cytotoxicity against human SF-268 cells assessed as reduction in cell viability incubated for 4 days by MTT assay; format: functional; details: SF-268, 96 h, time 4 day
SF-268 [29] = assay: Cytotoxicity against human SF-268 cells; format: functional; details: read-out: ED50 (the source's name)
U-87 MG [30] = assay: Antiproliferative activity against human U-87 MG cells assessed as reduction in cell viability incubated for 72 hrs by WST-8 reagent based assay; format: functional, U-87MG ATCC
[31] = Cytotoxicity against HEK293T cells assessed as reduction in cell viability incubated for 72 hrs by MTS assay; format: toxicity, cell-based, HEK-293T; details: human
T98G [32] = assay: Antiproliferative activity against human T98G cells assessed as reduction in cell viability incubated for 72 hrs by WST-8 reagent based assay; format: functional
U-118-MG [33] = assay: Antiproliferative activity against human U-118-MG cells assessed as reduction in cell viability incubated for 72 hrs by MTT assay; format: functional, cell-based
U-87 MG [34] = assay: Antiproliferative activity against human U-87 MG cells assessed as reduction in cell viability incubated for 72 hrs by MTT assay; format: functional, cell-based, U-87MG ATCC
T98G [35] = assay: Inhibition of colony formation in human T98G cells assessed as reduction in number of cell clone measured after 14 days by crystal violet staining based microscopic analysis; format: functional; details: 336 h
T98G [36] = assay: Anticancer activity against human T98G cells assessed as reduction in cell viability; format: functional, cell-based
[37] = Inhibition of colony formation in human U-251MG cells assessed as reduction in number of cell clone measured after 14 days by crystal violet staining based microscopic analysis; format: functional; details: 336 h
U-251 [38] = assay: Antiproliferative activity against human U-251MG cells assessed as reduction in cell viability incubated for 72 hrs by MTT assay; format: functional, cell-based; details: U-251, 72 h

COc1cccc2c1C(=O)c1c(O)c3c(c(O)c1C2=O)C[C@@](O)(C(=O)CO)C[C@@H]3O[C@H]1C[C@H](N)[C@H](O)[C@H](C)O1 [DOXORUBICIN]
IC50 (U-251 [1]): 0.237 µM | IC50 (U-87 MG [2]): 1.06 µM | IC50 [3]: 6.11 µM | IC50 (SF-268 [4]): 0.7 µM

COc1ccc2cc1Oc1ccc(cc1)C[C@H]1c3cc(c(OC)cc3CCN1C)Oc1c(OC)c(OC)cc3c1[C@H](C2)N(C)CC3 [FANCHININ]
CC50 [5]: 22.6 µM | CC50 (ECV-304 [6]): 34.2 µM | CC50 (ECV-304 [7]): 25.1 µM | IC50 (U-87 MG [8]): 10.8 µg/mL | CC50 [9]: 11.3 µM | IC50 [10]: 50 µg/mL (≈ 80.4 µM) | IC50 (U-251 [11]): 56.1 µg/mL (≈ 90.1 µM)

COc1ccc2cc1Oc1ccc(cc1)C[C@H]1c3cc(c(OC)cc3CCN1C)Oc1c(O)c(OC)cc3c1[C@H](C2)N(C)CC3 [FANGCHINOLINE]
IC50 (U-118-MG [12]): 44.2 µM | IC50 (U-87 MG [8]): 39.3 µM

O=C1c2ccccc2-[n+]2ccc3c([nH]c4ccccc43)c21 [FASCAPLYSIN]
Activity (U-87 MG [13]): 54.92%

COc1ccc2c(c1)[nH]c1c(C)nccc12 [HARMINE]
IC50 (U-87 MG [14]): 45.3 µM | IC50 (H4): 4.9 µM | Activity (U-87 MG [15]): 16.5% | Activity (U-251 [16]): 346%

O[C@H]1[C@H]2c3cc4c(cc3CN3CCC(=C[C@@H]1O)[C@H]23)OCO4 [LYCORINE]
IC50 (U-251 [17]): 10 µM

COc1ccc2c(c1O)-c1c(O)c(OC)cc3c1[C@H](C2)[N+](C)(C)CC3 [MAGNOFLORINE]
IC50 (T98G [18]): 112 µg/mL | Activity (T98G [19]): 24.02%

O=C1N[C@@H]2C(=C[C@H](O)[C@@H](O)[C@H]2O)c2cc3c(c(O)c21)OCO3 [NARCICLASINE]
EC50 (SF-268 [20]): 0.021 µg/mL (≈ 0.0683 µM)

COc1ccc(C[C@@H]2c3cc(Oc4cc(C[C@@H]5c6cc(OC)c(OC)cc6CCN5C)ccc4O)c(OC)cc3CCN2C)cc1 [NEFERINE]
IC50 (C6 [21]): 12 µM

COc1cc2c[n+](C)c3c4cc5c(cc4ccc3c2cc1OC)OCO5.[Cl-] [NITIDINE CHLORIDE]
IC50 (LN-18): 5 µM | IC50 (U-87 MG [22]): 10 µM | Activity (U-251 [23]): ~50% | IC50 (U-87 MG [24]): 5 µM | IC50 (C6 [25]): 8 µM | Activity (U-87 MG [26]): ~50%

COc1cc2c(cc1OC)-c1cc3ccc(OC)c(OC)c3c[n+]1CC2 [PALMITINE]
GI50 (U-251 [27]): 16.2 µM | IC50 (RPMI 8402): 10 µg/mL | GI50 (HaCaT): 122 µM | GI50 (SF-268 [28]): 3 µg/mL

O=C1N[C@H]2[C@H](O)[C@H](O)[C@@H](O)[C@H](O)[C@@H]2c2cc3c(c(O)c21)OCO3 [PANCRATISTATIN]
EC50 (SF-268 [29]): 0.017 µg/mL (≈ 0.0523 µM)

Cn1nnc2c(C(N)=O)ncn2c1=O [TEMOZOLOMIDE]
EC50 (U-87 MG [30]): 42 µM | IC50 at 72 h [31]: > 50 µg/mL | EC50 (T98G [32]): 390 µM | IC50 (U-118-MG [33]): > 320 µM | IC50 (U-87 MG [34]): 135 µM | EC50 (T98G [35]): 430 µM | EC50 (T98G [36]): 150 µM | EC50 [37]: 23 µM | IC50 (U-251 [38]): > 320 µM
